Measured values: patent EP0522596A1, “Method and means for inducing constriction of the pupil in the eye” (Kabi Pharmacia AB, priority 1989, dated 1993)
Entries after “also recorded” stand apart in the source; their conditions may differ. Ends that are not written are not given here.

Columns and labels:
pupil [1] = assay: Capsaicin-induced miosis in monkeys with and without Lorglumide pretreatment; format: in vivo, Macaca fascicularis
Experimental: Example 7: Monkeys (Macaca fascicularis) were anesthesized, pretreated with atropine and cannulated as described in Example 1. Then 10 µl of a 1% solution of Capsaicin was injected into the anterior chamber; the diameter of the pupil was measured 15 minutes later. The decrease in pupil size obtained with this dose varied from 0 to 1.5 mm.

[2] = test system: receptor present on the sphincter muscle; format: in vivo; conditions: nerve blockade with tetrodotoxin; pretreatment with indomethacin
pupil [3] = assay: Antagonism of the CCK-8 miosis dose-response in the monkey eye in vivo; parameters: species or system monkeys; conditions: 0.75 µg of Lorglumide injected into the anterior chamber
Experimental: Example 5: Dose-response determination of CCK-8 was carried out on one eye of atropine treated, pentobarbital anesthesized monkeys in accordance with the description in Example 1. Thereafter 0.75µg of Lorglumide in 15µl of isotonic saline was injected into the anterior chamber of the other eye. The CCK-8 dose-response relationship was then determined in the same way as in the case of the first eye.

[4] = test system: sphincter muscle of the iris; conditions: injected into the anterior chamber; Bill et al., 1979; cited from earlier work
pupil [5] = conditions: primates; Mandahl et al., 1980; cited from earlier work

## COc1cc(CNC(=O)CCCCC=CC(C)C)ccc1O [Capsaicin, 8-methyl-N-vanillyl-6-nonenamide]
Pupil [1]; cynomolgus monkey, in vivo
  miotic response in monkeys: less consistent and less pronounced as compared to the response in rabbits

## COc1ccc2c(c1)c(CC(=O)O)c(C)n2C(=O)c1ccc(Cl)cc1 [indomethacin]
[2]
  effect of pretreatment on the miosis response to CCK: do not cause a decrease in the miosis response

## CCCCCN(CCCCC)C(=O)C(CCC(=O)O)NC(=O)c1ccc(Cl)c(Cl)c1 (racemic) [Lorglumide, D,L-4-(3,4-dichlorobenzoylamino)-5-(dipentylamino)-5-oxo-pentanoic acid]
Pupil [3]
  shift of the CCK-8 dose-response curve to the right: more than one order of magnitude
Pupil [1]; pretreatment with 7.5 µg Lorglumide in 15 µl, capsaicin-sensitive animals
  effect on the pupil response to Capsaicin: decreased the response to Capsaicin; also recorded: most of the effect on the pupil was eliminated

## substance P (RPKPQQFFGLM; ends and bridges not checked; UniProt P20366 58-68, looked up) [neuropeptide released in the eye on irritation; synthetically produced]
[4]
  response of the sphincter muscle of the iris: substantial contractive response
Pupil [5]
  pupillary response to substance P: totally absent
